Tested on: normal human-derived epidermal keratinocytes
Experiment: in-vitro thymidine dimer assay after UVB, epidermis skin model
Assay type: cell-based
Settings: 7 days treatment, UVB 300 mJ/cm^2; Trolox 50 ug/ml, Aristotelia chilensis 5%, Ugni molinae 4%
Description: Leaf extracts Aristotelia chilensis and Ugni molinae were evaluated to determine their ability to prevent undesirable thymidine dimer formation upon exposure to UVB radiation. When skin is exposed to UVB radiation, thymidine bases in the DNA can absorb the UVB radiation to form thymidine dimers (also known as thymine dimers) in DNA, complicating the cell's efforts to replicate DNA and to properly function. In this experiment, an in-vitro thymidine dimer assay was performed using a skin model consisting of normal human-derived epidermal keratinocytes cultured to form a multilayered model of the human epidermis. […] The primary antibody was then detected with a secondary antibody conjugated to a fluorescent dye. The membrane was then scanned with an excitation laser and emission filter combo specific to the fluorescent dye, so that the fluorescence intensity of each sample was proportional to the amount of thymidine dimers present in the sample and a lower fluorescence intensity advantageously indicates lower levels of cellular damage from UVB radiation. The results of the thymidine dimer assay are found in Table 1, below, expressed as mean Relative Fluorescence Units (RFU)±standard deviation.

Cc1c(C)c2c(c(C)c1O)CCC(C)(C(=O)O)O2 (stereo not shown) [Trolox]
Corrected RFU (thymidine dimers), mean ± standard deviation: 4.380 ± 393.00 RFU

From patent US11141374B2, “Natural skin care compositions and methods for treating oxidative stress and restoring skin health” (CODEX BEAUTY CORPORATION, priority 2019, dated 2021)
